Assay: Remineralization of enamel subsurface lesions (transverse microradiography and densitometric image analysis)
Design: species or system Human
Settings: 1% v/v sodium hypochlorite for 1 min at start of CPP-ACP remineralization, versus CPP-ACP alone
Procedure: Human tooth enamel demineralized subsurface lesions were prepared using the method of Reynolds, (1997). J Dent Res 76:1587-1595. The enamel surface was removed by polishing to remove all adsorbed protein. This removed around 50-100 μm of enamel to expose an uncoated, polished enamel surface for the study. […] A 1% w/v CPP-ACP pH 5.0 solution was prepared using Recaldent® [Kraft Foods], a commercial source of CPP-ACP that is prepared as per Example 1 at a pH of 5.0. All blocks were remineralized with the 1% CPP-ACP pH 5 solution for 7 days at 37° C. However, half were exposed to a 1% v/v sodium hypochlorite solution for 1 min at the start of the CPP-ACP remineralization period. In other words, the sodium hypochlorite and CPP-ACP were simultaneously exposed to the subsurface lesion. After remineralization the enamel blocks were embedded, sectioned and subjected to transverse microradiography and densitometric image analysis as previously described by Reynolds (1997) to determine percent mineral content gain (% Remineralization) shown in Table 3.

OCl [hypochlorite, sodium hypochlorite]
increase of the level of remineralization by the CPP-ACP solution: 31%
